Where a name gives a salt, the structure may show the parent alone.

What all share (assay type): cell-based, mouse
For assay [1], the system named is Hedgehog Signaling Pathway. Description: SHH-induced differentiation of C3H10T1/2 cells into osteoblastic cells, intracellular alkaline phosphatase activity. The conditions noted are these: 10 nM SHH-N, 5 days, alkaline phosphatase activity (OD405), read-out: IC50 values of compounds that inhibit Hh pathway. In outline:
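Mouse C3H10T1/2 cells were induced with 10 nM SHH-N alongside test compound (10 μM–10 nM) for 5 days at 37 °C. Cells were lysed in 0.2% Triton, and alkaline phosphatase activity was read at OD405 over 30 min at 37 °C with the background reading subtracted. IC50 came from a nonlinear fit against log concentration.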

Assay [2] concerns Hedgehog Signaling Pathway. Description: Gli-Luc reporter gene cell assay in C3H10T1/2/Gli-Luc cells stimulated with Shh. The settings on record: 30 nM Shh, luciferase activity (RLU), read-out: IC50 values of compounds that inhibit Hh pathway. In outline:
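C3H10T1/2 cells stably carrying Gli-responsive luciferase were seeded overnight, then treated 24 h at 37 °C with compound (7-point dilution series, DMSO control) plus Shh (30 nM in added medium). Lysate luciferase RLU fitted against log concentration to derive IC50.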

The test system of assay [3] is Hedgehog Signaling Pathway. Description: SAG-induced differentiation of C3H10T1/2 cells into osteoblastic cells, intracellular alkaline phosphatase activity. The settings on record: 1 μM SAG, 5 days, alkaline phosphatase activity (OD405), read-out: IC50 values of compounds that inhibit Hh pathway. In a few lines:
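Mouse C3H10T1/2 cells were induced with SAG and exposed to compound (10 μM to 1 nM) for 5 days at 37 °C. Cells were lysed in 0.2% Triton, and alkaline phosphatase activity was read as OD405 over 30 min at 37 °C in pH 9.8 substrate buffer. IC50 came from a non-linear fit of background-subtracted OD405 against log concentration.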

Where [4] appears, read: Mus musculus, C3H 10T1/2, 120 h.

Turning to `CS(=O)(=O)c1ccc(C(=O)Nc2ccc(Cl)c(-c3ncc(-c4cccs4)[nH]3)c2)c(Cl)c1` [Example 160, N-(3-(5-(thiophen-2-yl)-1H-imidazol-2-yl)-4-chlorophenyl)-2-chloro-4-(methylsulfonyl)benzamide], the IC50 in assay [1] (setting [4]) was over 10000 nM; in assay [2] (Mus musculus, C3H 10T1/2, 24 h) it was 6.5 nM; in assay [3] (setting [4]) it was 66 nM.

On to `Cc1cc(N2C[C@@H](C)N(C)[C@@H](C)C2)ccc1C(=O)Nc1ccc(Cl)c(-c2ncc[nH]2)c1` [Example 166, N-(3-(1H-imidazol-2-yl)-4-chlorophenyl)-2-methyl-4-((3S,5R)-3,4,5-trimethylpiperazin-1-yl)benzamide], for which the IC50 in assay [1] (setting [4]) came out at 47 nM; in assay [2] (Mus musculus, C3H 10T1/2, 24 h), 11 nM; in assay [3] (setting [4]), 347 nM.

Turning to `Cc1cc(N2C[C@@H](C)N(C)[C@@H](C)C2)ccc1C(=O)Nc1ccc(Cl)c(-c2ncc(C(C)C)[nH]2)c1` [Example 170, N-(3-(5-isopropyl-1H-imidazol-2-yl)-4-chlorophenyl)-2-methyl-4-((3S,5R)-3,4,5-trimethylpiperazin-1-yl)benzamide], the IC50 is 0.22 nM in assay [1] (setting [4]); 0.22 nM in assay [2] (Mus musculus, C3H 10T1/2, 24 h); 30 nM in assay [3] (setting [4]).

As to `CCCc1cnc(-c2cc(NC(=O)c3ccc(N4C[C@@H](C)N(C)[C@@H](C)C4)cc3C)ccc2Cl)[nH]1` [Example 172, N-(3-(5-propyl-1H-imidazol-2-yl)-4-chlorophenyl)-2-methyl-4-((3S,5R)-3,4,5-trimethylpiperazin-1-yl)benzamide], the IC50 in assay [1] (setting [4]) was found to be 45 nM; in assay [2] (Mus musculus, C3H 10T1/2, 24 h), 17 nM; in assay [3] (setting [4]), 127 nM.

In the case of `CCCc1cnc(-c2cc(NC(=O)c3ccc(N4C[C@@H](C)N(C)[C@@H](C)C4)cc3Cl)ccc2Cl)[nH]1` [Example 173], the figures for the IC50 in assay [1], in assay [2] (24 hours) and in assay [3] were 60 nM, 15 nM and 165 nM, respectively.

On to `Cc1cc(N2C[C@@H](C)N(C)[C@@H](C)C2)ccc1C(=O)Nc1ccc(Cl)c(-c2ncc(C(C)(C)C)[nH]2)c1` [Example 174, N-(3-(5-tert-butyl-1H-imidazol-2-yl)-4-chlorophenyl)-2-methyl-4-((3S,5R)-3,4,5-trimethylpiperazin-1-yl)benzamide], for which the IC50 in assay [1] (setting [4]) amounted to 11 nM; in assay [2] (Mus musculus, C3H 10T1/2, 24 h), 5.7 nM; in assay [3] (setting [4]), 91 nM.

Consider `C[C@@H]1CN(c2ccc(C(=O)Nc3ccc(Cl)c(-c4ncc(C(C)(C)C)[nH]4)c3)c(Cl)c2)C[C@H](C)N1C` [Example 175, N-(3-(5-tert-butyl-1H-imidazol-2-yl)-4-chlorophenyl)-2-chloro-4-((3S,5R)-3,4,5-trimethylpiperazin-1-yl)benzamide], for which the IC50 was 6.1 nM in assay [1] (setting [4]); 7.6 nM in assay [2] (Mus musculus, C3H 10T1/2, 24 h); 176 nM in assay [3] (setting [4]).

With `C[C@@H]1CN(c2ccc(C(=O)Nc3ccc(Cl)c(-c4ncc(C5CC5)[nH]4)c3)c(Cl)c2)C[C@H](C)N1C` [Example 176, N-(3-(5-cyclopropyl-1H-imidazol-2-yl)-4-chlorophenyl)-2-chloro-4-((3S,5R)-3,4,5-trimethylpiperazin-1-yl)benzamide], the IC50 in assay [1] (setting [4]) worked out at 3.9 nM; in assay [2] (Mus musculus, C3H 10T1/2, 24 h), 0.97 nM; in assay [3] (setting [4]) it was 7.2 nM.

Consider `Cc1cc(N2C[C@@H](C)N(C)[C@@H](C)C2)ccc1C(=O)Nc1ccc(Cl)c(-c2ncc(C3CC3)[nH]2)c1` [Example 177, N-(3-(5-cyclopropyl-1H-imidazol-2-yl)-4-chlorophenyl)-2-methyl-4-((3S,5R)-3,4,5-trimethylpiperazin-1-yl)benzamide], for which the IC50 in assay [1] (setting [4]) is 1 nM; in assay [2] (Mus musculus, C3H 10T1/2, 24 h), 0.67 nM; in assay [3] (setting [4]) it was 23 nM.

As to `C[C@@H]1CN(c2ccc(C(=O)Nc3ccc(Cl)c(-c4ncc(C5CC5)[nH]4)c3)c(C(F)(F)F)c2)C[C@H](C)N1C` [Example 178, N-(3-(5-cyclopropyl-1H-imidazol-2-yl)-4-chlorophenyl)-2-(trifluoro-methyl)-4-((3S,5R)-3,4,5-trimethylpiperazin-1-yl)benzamide], the 50% inhibitory concentration (IC50) in assay [1] (setting [4]) was 0.3 nM; in assay [2] (Mus musculus, C3H 10T1/2, 24 h), 1 nM; in assay [3] (setting [4]), 26 nM.

On to `Cc1c(C(=O)Nc2ccc(Cl)c(-c3ncc(C4CC4)[nH]3)c2)ccc(N2C[C@@H](C)N(C)[C@@H](C)C2)c1F` [Example 179, N-(3-(5-cyclopropyl-1H-imidazol-2-yl)-4-chlorophenyl)-2-methyl-3-fluoro-4-((3S,5R)-3,4,5-trimethylpiperazin-1-yl)benzamide], for which the IC50 in assay [1] (setting [4]) worked out at 0.39 nM; in assay [2] (Mus musculus, C3H 10T1/2, 24 h), 0.43 nM; in assay [3] (setting [4]), 21 nM.

As to `C[C@@H]1CN(c2ccc(C(=O)Nc3ccc(Cl)c(-c4ncc(C5CCC5)[nH]4)c3)c(Cl)c2)C[C@H](C)N1C` [Example 180, N-(3-(5-cyclobutyl-1H-imidazol-2-yl)-4-chlorophenyl)-2-chloro-4-((3S,5R)-3,4,5-trimethylpiperazin-1-yl)benzamide], the IC50 is 9.9 nM in assay [1] (setting [4]); 2.4 nM in assay [2] (Mus musculus, C3H 10T1/2, 24 h); 47 nM in assay [3] (setting [4]).

As to `Cc1cc(N2C[C@@H](C)N(C)[C@@H](C)C2)ccc1C(=O)Nc1ccc(Cl)c(-c2ncc(C3CCC3)[nH]2)c1` [Example 181, N-(3-(5-cyclobutyl-1H-imidazol-2-yl)-4-chlorophenyl)-2-methyl-4-((3S,5R)-3,4,5-trimethylpiperazin-1-yl)benzamide], the IC50 in assay [1] (setting [4]) came to 19 nM; in assay [2] (Mus musculus, C3H 10T1/2, 24 h) it was 3.2 nM; in assay [3] (setting [4]), 70 nM.

With `C[C@@H]1CN(c2ccc(C(=O)Nc3ccc(Cl)c(-c4ncc(C5CCCC5)[nH]4)c3)c(Cl)c2)C[C@H](C)N1C` [Example 182, N-(3-(5-cyclopentyl-1H-imidazol-2-yl)-4-chlorophenyl)-2-chloro-4-((3S,5R)-3,4,5-trimethylpiperazin-1-yl)benzamide], the IC50 in assay [1] (setting [4]) worked out at 9 nM; in assay [2] (Mus musculus, C3H 10T1/2, 24 h), 4.5 nM; in assay [3] (setting [4]) it was 100 nM.

Turning to `Cc1cc(N2C[C@@H](C)N(C)[C@@H](C)C2)ccc1C(=O)Nc1ccc(Cl)c(-c2ncc(C3CCCC3)[nH]2)c1` [Example 183, N-(3-(5-cyclopentyl-1H-imidazol-2-yl)-4-chlorophenyl)-2-methyl-4-((3S,5R)-3,4,5-trimethylpiperazin-1-yl)benzamide], the IC50 came to 22 nM in assay [1] (setting [4]); 6.6 nM in assay [2] (Mus musculus, C3H 10T1/2, 24 h); 90 nM in assay [3] (setting [4]).

Consider `C[C@@H]1CN(c2ccc(C(=O)Nc3ccc(Cl)c(-c4ncc(C5CCCCC5)[nH]4)c3)c(Cl)c2)C[C@H](C)N1C` [Example 184, N-(3-(5-cyclohexyl-1H-imidazol-2-yl)-4-chlorophenyl)-2-chloro-4-((3S,5R)-3,4,5-trimethylpiperazin-1-yl)benzamide], for which the IC50 in assay [1] (setting [4]) was determined as 28 nM; in assay [2] (Mus musculus, C3H 10T1/2, 24 h), 10 nM; in assay [3] (setting [4]), 184 nM.

With `Cc1cc(N2C[C@@H](C)N(C)[C@@H](C)C2)ccc1C(=O)Nc1ccc(Cl)c(-c2ncc(C3CCCCC3)[nH]2)c1` [Example 185, N-(3-(5-cyclohexyl-1H-imidazol-2-yl)-4-chlorophenyl)-2-methyl-4-((3S,5R)-3,4,5-trimethylpiperazin-1-yl)benzamide], the IC50 in assay [1] (setting [4]) came out at 6.1 nM; in assay [2] (Mus musculus, C3H 10T1/2, 24 h), 17 nM; in assay [3] (setting [4]), 169 nM.

On to `CC(C)c1cnc(-c2cc(NC(=O)c3ccc(N4C[C@@H](C)N(C)[C@@H](C)C4)cc3Cl)ccc2Cl)[nH]1` [Example 189, N-(3-(5-isopropyl-1H-imidazol-2-yl)-4-chlorophenyl)-2-chloro-4-((3S,5R)-3,4,5-trimethylpiperazin-1-yl)benzamide Dihydrochloride], for which the IC50 in assay [1] (setting [4]) worked out at 5.2 nM; in assay [2] (Mus musculus, C3H 10T1/2, 24 h) it was 0.82 nM; in assay [3] (setting [4]) it was 30 nM.

For `C[C@@H]1CN(c2ccc(C(=O)Nc3ccc(Cl)c(-c4nc5cccnc5[nH]4)c3)c(Cl)c2)C[C@H](C)N1C` [Example 195, N-(3-(3H-imidazo[4,5-b]pyridin-2-yl)-4-chlorophenyl)-2-chloro-4-((3S,5R)-3,4,5-trimethylpiperazin-1-yl)benzamide], the IC50 worked out at 8.1 nM in assay [1] (setting [4]); 8.9 nM in assay [2] (Mus musculus, C3H 10T1/2, 24 h); 258 nM in assay [3] (setting [4]).

As for `C[C@@H]1CN(c2ccc(C(=O)Nc3ccc(Cl)c(-c4nc5ccncc5[nH]4)c3)c(Cl)c2)C[C@H](C)N1C` [Example 196, N-(3-(3H-imidazo[4,5-c]pyridin-2-yl)-4-chlorophenyl)-2-chloro-4-((3S,5R)-3,4,5-trimethylpiperazin-1-yl)benzamide], the IC50 in assay [1] (setting [4]) came out at 54 nM; in assay [2] (Mus musculus, C3H 10T1/2, 24 h) it was 5.7 nM; in assay [3] (setting [4]), 157 nM.

As for `Cc1cc(N2C[C@@H](C)N(C)[C@@H](C)C2)ccc1C(=O)Nc1ccc(Cl)c(-c2nc3ccncc3[nH]2)c1` [Example 197, N-(3-(3H-imidazo[4,5-c]pyridin-2-yl)-4-chlorophenyl)-2-methyl-4-((3S,5R)-3,4,5-trimethylpiperazin-1-yl)benzamide], the half-maximal inhibitory concentration (IC50) in assay [1] (setting [4]) was determined as 115 nM; in assay [2] (Mus musculus, C3H 10T1/2, 24 h), 9.5 nM; in assay [3] (setting [4]) it was 306 nM.

As for `Cc1cc(N2C[C@@H](C)N(C)[C@@H](C)C2)ccc1C(=O)Nc1ccc(Cl)c(-c2nc3cscc3[nH]2)c1` [Example 198], the IC50 came to 0.3 nM in assay [1], 0.29 nM in assay [2] (24 hours) and 26 nM in assay [3].

What is called IC50 is the point on the concentration scale where inhibition reaches its midpoint.

(Values after US10676468B2, “N-(3-heteroarylaryl)-4-arylarylcarboxamides and analogs as hedgehog pathway inhibitors and use thereof” (IMPACT Therapeutics, Inc., priority 2012, dated 2020).)
